Laboratory results: paper PMC4638191, “Multicomponent reaction-based synthesis and biological evaluation of tricyclic heterofused quinolines with multi-trypanosomatid activity” (European Journal of Medicinal Chemistry, 2015)
Read-outs that look alike come from different tables or passages of the source. Marks after values point to notes of the source that are not given here.

What was measured:
[1] = system: rat skeletal myoblast L6 cells; experiment: cells; settings: L6, read-out: L6 cells IC50
Method: (§1) Cytotoxicity against mammalian cells was assessed using microtitre plates following a described procedure [58]. Briefly, rat skeletal muscle L6 cells were seeded at 1 × 10^4 mL^−1 in 200 μL of growth medium containing different compound concentrations. The plates were incubated for 6 days at 37 °C and 20 μL resazurin was then added to each well. After a further 8 h incubation, the fluorescence was determined using a Spectramax plate reader.

[2] = biological target: T1, Electrophorus electricus AChE (EeAChE) (Electrophorus electricus, UniProt O42275); design: method as in PMID 24389509; settings: same experimental conditions; ref [40]; cited from earlier work
T1 sequence (O42275 24-633): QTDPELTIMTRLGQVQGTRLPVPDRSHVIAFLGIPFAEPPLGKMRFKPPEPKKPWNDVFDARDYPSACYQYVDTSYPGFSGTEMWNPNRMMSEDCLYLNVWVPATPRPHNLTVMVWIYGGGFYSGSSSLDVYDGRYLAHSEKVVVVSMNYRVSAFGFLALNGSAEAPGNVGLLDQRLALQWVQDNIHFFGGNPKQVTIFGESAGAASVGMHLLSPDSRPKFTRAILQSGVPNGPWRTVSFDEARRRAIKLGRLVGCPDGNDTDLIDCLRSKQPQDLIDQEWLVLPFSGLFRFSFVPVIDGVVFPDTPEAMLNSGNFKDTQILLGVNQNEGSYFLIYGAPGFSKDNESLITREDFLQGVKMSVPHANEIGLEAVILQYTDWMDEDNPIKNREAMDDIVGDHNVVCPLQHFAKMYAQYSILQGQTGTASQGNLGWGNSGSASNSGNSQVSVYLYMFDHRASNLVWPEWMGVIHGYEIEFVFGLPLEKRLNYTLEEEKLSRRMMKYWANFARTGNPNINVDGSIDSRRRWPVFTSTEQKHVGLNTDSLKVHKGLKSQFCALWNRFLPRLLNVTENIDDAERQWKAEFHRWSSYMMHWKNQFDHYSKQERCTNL

[3] = system: human recombinant AChE (hAChE); design: method as in PMID 24389509; settings: ref [40]; cited from earlier work
in vitro [4] = settings: rat
Method: as §1

[5] = system: bloodstream form T. brucei (strain 221); experiment: Trypanocidal activity against cultured bloodstream form T. brucei (resazurin); settings: for IC50: mean of triplicate ± SEM; for IC90: pH 7.4, read-out: T. brucei IC90
Method: T. brucei in the logarithmic phase of growth were diluted back to 2.5 × 10^4 mL^−1 and aliquoted into 96-well plates. The compounds were then added at a range of concentrations and the plates incubated at 37 °C. Each drug concentration was tested in triplicate. Resazurin was added after 48 h and the plates incubated for a further 16 h and the plates then read in a Spectramax plate reader. Results were analysed using GraphPad Prism.

[6] = biological target: T1, Electrophorus electricus AChE (EeAChE); experiment: biochemical; type: biochemical; settings: for inhibition at 30 µM: the IC50 could not be determined; for IC50: mean ± SEM
[7] = system: L. infantum strain MCAN/ES/92/BCN722 promastigote forms; experiment: Activity against promastigotes of L. infantum (acid phosphatase); type: cell-based, Leishmania infantum; settings: promastigote form, mean ± SD of duplicate experiments performed at least twice
[8] = for Pe: PAMPA-BBB, PBS:EtOH 70:30, mean ± SD of three independent experiments; for Pe (prediction) of BBB permeation: class from PAMPA-BBB Pe
Method: (§2) Thus, the brain passive permeability of the novel compounds was evaluated in vitro through the widely used PAMPA-BBB method [[50]

[9] = system: T. cruzi strain MHOM/ES/2203/BCN590 (Tcl) epimastigote forms; experiment: Activity against epimastigotes of T. cruzi (cell counting); settings: mean ± SD of duplicate experiments performed at least twice
in vitro [10] = settings: pig, PAMPA
Method: as §2

[11] = commercial drugs for PAMPA-BBB validation; ref [2]; cited from earlier work
[12] = system: rat skeletal myoblast L6 cells
Method: as §1

[13] = system: bloodstream form T. brucei (strain 221); settings: read-out: T. brucei IC50; nifurtimox reference value; ref [49]; cited from earlier work
[14] = rat skeletal muscle L6 cells, SITb: selectivity index as the ratio of cytotoxic to anti-T. brucei IC50 values, L6 IC50 / T. brucei IC50
[15] = Trypanosoma brucei, pH 7.4, read-out: T. brucei IC50, bloodstream form, pH 7.4
[16] = rat skeletal muscle L6 cells, SILi: selectivity index as the ratio of cytotoxic to anti-L. infantum IC50 values, L6 IC50 / L. infantum IC50
[17] = rat skeletal muscle L6 cells, SITc: selectivity index as the ratio of cytotoxic to anti-T. cruzi IC50 values, L6 IC50 / T. cruzi IC50
[18] = Trypanosoma cruzi, read-out: T. cruzi IC50, epimastigote form
[19] = read-out: T. brucei IC50, bloodstream form, pH 7.4

Compound: CCNCc1ccc2nc(-c3ccc(Cl)cc3)c3c(c2c1)N(Cc1ccccc1)CCC3 [Compound 1]
- IC50 [1]: 7.08 ± 0.11 µM
- IC50 [2]: 0.15 ± 0.01 µM
- IC50 [3]: 0.94 µM
- selectivity ratio at 6 days (in vitro [4]; [14]): 2.1
- IC50 [5, 15]: 3.33 ± 0.18 µM
- IC90 ([5]; Trypanosoma brucei): 4.39 ± 0.04 µM

Compound: NCc1ccc(-c2nc3ccc(Cl)cc3c3c2CCCO3)cc1 [Compound 39, 4-{9-Chloro-3,4-dihydro-2H-pyrano[3,2-c]quinolin-5-yl}benzylamine]
- inhibition at 30 µM [6]: 45%
- IC50 [6]: > 30 µM
- IC50 ([7]; Leishmania infantum): 6.1 ± 0.2 µM
- Pe [8]: 15.5 ± 1.8 10^−6 cm s^−1
- Pe (prediction) of BBB permeation [8]: CNS+ (compounds of high BBB permeation (CNS+): Pe (10^−6 cm s^−1) > 5.25)
- IC50 [1]: 7 ± 0.19 µM
- selectivity ratio at 6 days (in vitro [4]; [16]): 1.1
- selectivity ratio at 6 days (in vitro [4]; [14]): 4.8
- selectivity ratio at 6 days (in vitro [4]; [17]): 0.2
- IC50 [9, 18]: ~30 µM
- IC50 ([9]; read-out: T. cruzi IC50, epimastigote form): 29.2 ± 3.7 µM
- IC50 [5, 15]: 1.5 µM
- IC90 ([5]; Trypanosoma brucei): 1.77 ± 0.02 µM
- IC50 [5, 19]: 1.46 ± 0.02 µM

Compound: Clc1ccc2nc(-c3cccs3)c(CCCN3CCCC3)cc2c1 [Compound 49, N-{3-[6-Chloro-2-(2-thienyl)quinolin-3-yl]propyl}pyrrolidine]
- inhibition at 30 µM [6]: 54%
- IC50 [6]: ~30 µM
- IC50 ([7]; Leishmania infantum): ~15 µM
- IC50 [7]: 13.1 ± 5.8 µM
- Pe [8]: 12.9 ± 0.1 10^−6 cm s^−1
- Pe (prediction) of BBB permeation [8]: CNS+ (compounds of high BBB permeation (CNS+): Pe (10^−6 cm s^−1) > 5.25)
- IC50 [1]: 9.44 ± 0.14 µM
- selectivity ratio at 6 days (in vitro [4]; [16]): 0.7
- selectivity ratio at 6 days (in vitro [4]; [14]): 2.7
- selectivity ratio at 6 days (in vitro [4]; [17]): 0.3
- IC50 [9, 18]: 35.2 ± 12.6 µM
- IC50 [5, 15]: ~5 µM
- IC90 ([5]; Trypanosoma brucei): 4.93 ± 0.17 µM
- IC50 [5, 19]: 3.56 ± 0.17 µM

Compound: CCn1cc(C(=O)O)c(=O)c2cc(F)c(N3CCNCC3)cc21 [Norfloxacin]
- Papp (in vitro [10]): 0.9 ± 0.02 ×10⁻⁶ cm/s

Compound: CN1C(C(=O)Nc2ccccn2)=C(O)c2ccccc2S1(=O)=O [Piroxicam]
- Pe, literature value [11]: 2.5 10–6 cm s–1

Compound: CN(C)CCCN1c2ccccc2Sc2ccccc21 [Promazine]
- Pe, literature value [11]: 8.8 10–6 cm s–1

Compound: O.O.O.O=C([O-])C(O)C(O)C(=O)[O-].O=C([O-])C(O)C(O)C(=O)[O-].[K+].[K+].[Sb].[Sb] (stereo not drawn) [Sb (III), Potassium antimony (III) tartrate hydrate, reference compound]
- IC50 [7]: 24.3 ± 1.7 µM
- SILi: selectivity index as the ratio of cytotoxic to anti-L. infantum IC50 values [12]: 0.1 ^g

Compound: CC1CS(=O)(=O)CCN1/N=C/c1ccc([N+](=O)[O-])o1 (stereo not drawn) [nifurtimox, reference compound]
- IC50 [1]: 32 ± 1.1 µM
- selectivity ratio at 6 days (in vitro [4]; SITb: selectivity index as the ratio of cytotoxic to anti-T. brucei IC50 values): 7.3
- IC50 [13]: 4.4 ± 0.7 µM
